Reference: ChEMBL document CHEMBL5108032, “Innovation Experiences from Africa-Led Drug Discovery at the Holistic Drug Discovery and Development (H3D) Centre” (ACS Med Chem Lett, 2022)
Converted amounts (≈) assume the structure as drawn.

Test system: Mycobacterium tuberculosis
Assay: Antimycobacterial activity against Mycobacterium tuberculosis H37Rv assessed as inhibition of visible growth incubated for 7 days
Assay type: functional
Settings: 168 h, time 7 day

Question: How did the MIC turn out when `Cc1nnc(-c2noc3c(F)c4c(cc23)CC2(C(=O)NC(=O)NC2=O)[C@H]2[C@H](C)O[C@H](C)CN42)o1` was run?
Answer: Its MIC is 1.7 µM (≈ 0.8 µg/mL).
